Tests used:
Format in all cases: functional, cell-based
HCT-8 = experiment: Cytotoxicity against human HCT8 cells after 96 hrs by MTT assay; conditions: HCT-8, 96 h
A549 = experiment: Cytotoxicity against human A549 cells after 96 hrs by MTT assay; conditions: A549, 96 h
Bel-7402 = experiment: Cytotoxicity against human Bel7402 cells after 96 hrs by MTT assay; conditions: Bel-7402, 96 h
MCF7 = experiment: Cytotoxicity against human MCF7 cells after 96 hrs by MTT assay; conditions: MCF7, 96 h
KETR3 = experiment: Cytotoxicity against human Ketr3 cells after 96 hrs by MTT assay; conditions: KETR3, 96 h
BGC-823 = experiment: Cytotoxicity against human BGC823 cells after 96 hrs by MTT assay; conditions: BGC-823, 96 h

CC(=O)/C=C(O)/C=C/c1ccc(O)c(O)c1 [HISPOLON]
IC50 (HCT-8): 199 µM | IC50 (A549): 183 µM | IC50 (Bel-7402): 38 µM | IC50 (MCF7): 25 µM | IC50 (KETR3): 0.206 µM | IC50 (BGC-823): 205 µM

CC1=CC(=O)C2(O1)c1c(cc(/C=C/c3ccc(O)c(O)c3)oc1=O)OC2c1ccc(O)c(O)c1 (stereo not given) [INOSCAVIN A]
IC50 (HCT-8): > 108 µM | IC50 (A549): > 108 µM | IC50 (Bel-7402): 88 µM | IC50 (MCF7): > 108 µM | IC50 (KETR3): > 0.108 µM | IC50 (BGC-823): > 108 µM

O=c1oc2cc(/C=C/c3ccc(O)cc3)oc(=O)c2c2cc(O)c(O)cc12 [PHELLIGRIDIN C]
IC50 (HCT-8): 126 µM | IC50 (A549): 12 µM | IC50 (Bel-7402): 10 µM | IC50 (MCF7): 72 µM | IC50 (KETR3): 0.094 µM | IC50 (BGC-823): > 137 µM

Cc1cc2oc(=O)c3cc(O)c(O)cc3c2c(=O)o1 [PHELLIGRIDIN A]
IC50 (HCT-8): > 192 µM | IC50 (A549): > 192 µM | IC50 (Bel-7402): 110 µM | IC50 (MCF7): 109 µM | IC50 (KETR3): > 0.192 µM | IC50 (BGC-823): 181 µM

COC1(CC(C)=O)Oc2cc(/C=C/c3ccc(O)c(O)c3)oc(=O)c2/C1=C/c1ccc(O)c(O)c1 (stereo not given) [PHELLIGRIDIN F]
IC50 (HCT-8): > 104 µM | IC50 (A549): 84 µM | IC50 (Bel-7402): 46 µM | IC50 (MCF7): 85 µM | IC50 (KETR3): > 0.104 µM | IC50 (BGC-823): 92 µM

CC1=CC(=O)C2(O1)C(c1cc3oc(=O)c4cc(O)c(O)cc4c3c(=O)o1)=Cc1cc(O)c(O)cc12 (stereo not given) [PHELLIGRIDIN E]
IC50 (HCT-8): > 105 µM | IC50 (A549): 79 µM | IC50 (Bel-7402): 55 µM | IC50 (MCF7): 70 µM | IC50 (KETR3): > 0.105 µM | IC50 (BGC-823): 96 µM

CC(=O)/C=C/c1ccc(O)c(O)c1
IC50 (HCT-8): 227 µM | IC50 (A549): > 280 µM | IC50 (Bel-7402): 153 µM | IC50 (MCF7): 141 µM | IC50 (KETR3): 0.245 µM | IC50 (BGC-823): 243 µM

O=c1oc2cc(/C=C/c3ccc(O)c(O)c3)oc(=O)c2c2cc(O)c(O)cc12 [PHELLIGRIDIN D]
IC50 (HCT-8): 99 µM | IC50 (A549): 16 µM | IC50 (Bel-7402): 8 µM | IC50 (MCF7): 37 µM | IC50 (KETR3): 0.09 µM | IC50 (BGC-823): > 131 µM

COC(=O)c1c(O)cc(/C=C/c2ccc(O)c(O)c2)oc1=O [PHELLIGRIDIN B]
IC50 (HCT-8): 139 µM | IC50 (A549): > 164 µM | IC50 (Bel-7402): 50 µM | IC50 (MCF7): 143 µM | IC50 (KETR3): 0.144 µM | IC50 (BGC-823): 146 µM

CC[C@@]1(O)C(=O)OCc2c1cc1n(c2=O)Cc2cc3c(CN(C)C)c(O)ccc3nc2-1 [TOPOTECAN]
IC50 (HCT-8): 1.5 µM | IC50 (A549): 3.2 µM | IC50 (Bel-7402): 1.2 µM | IC50 (MCF7): 1.8 µM | IC50 (KETR3): 0.0049 µM | IC50 (BGC-823): 4.3 µM
